Patent US9101138B2, “Methods and compositions utilizing lactams derived from camphor, verbenone or cat thyme oil for repelling blood-sucking and biting insects, ticks and mites” (The United States of America, as represented by the …, priority 2013, dated 2015)

System: Aedes aegypti
Assay: Free choice assay against mosquitoes (feeding deterrence assay in glove box)
Format: in vivo
Settings: median effective dose to repel 50% of mosquitoes; treated membrane over human blood, 20 min
Method: Free Choice Assay against mosquitoes (compact repellency): Mosquitoes used were nulliparous female Aedes aegypti (Red eye Liverpool strain). They were laboratory-reared and maintained at 27° C. and 80% RH under a photoperiod of 12:12 (L:D) h by using standard mosquito rearing procedures (Rutledge, C. C., et al., J. Med. Entomol., 14: 536-541 (1978)). Larvae were fed a diet of ground tropical fish flakes and adults were fed a 10% sucrose solution. Adult female mosquitoes used for experimentation were between 5 and 15 d old and starved (provided only water) for 24 h before testing. The test system consisted of a mosquito blood-feeder, a constant-temperature water circulator (to maintain the temperature of the blood at 37° C.) and a specially designed cage. The mosquito blood-feeder contained five circular blood reservoirs, each of which was filled with outdated human blood titrated with adenosine triphosphate. The wells were then covered with sausage membrane and secured using high vacuum grease. Absolute ethanol was used as a solvent and diluent for candidate repellents. Each diluted repellent solution was then randomly applied to the membrane surface at concentrations of 0.02, 0.04, 0.08 and 0.16 mg/cm^2. A separate membrane covered well served as a control. 250 mosquitoes were exposed to the treated membranes on the blood reservoirs ad libitum by opening the sliding door in the floor of the test cage. The number of mosquitoes feeding on each well was counted and noted at two-minute intervals for 20 minutes using the total number of feeding mosquitoes as a response. Each test was replicated for a minimum of four times to obtain a statistically valid sample size for analysis. The median effective dose to repel 50% of the mosquito test population was then calculated by the method of Goldstein (Goldstein, A., et al., 1974. Principles of Drug Action: The Basis of Pharmacology, 2nd ed., John Wiley and Sons, New York, N.Y., 854 p) (chemical sensitivity levels calculated from the dose-response regression equation) for single curves with graded responses. Significant differences were then determined by comparing the 95% confidence level among effective doses.

Molecule | EC50 [mg/cm^2]
N-propyl dihydro verbenone lactam [Compound 2a] | 0.0561
C=C1CNC(=O)C2C(C)CCC12 (centres unmarked) [Compound 3, Dolicho (C) lactam] | 0.0322
CC12CCC(CNC1=O)C2(C)C (centres unmarked) [Compound 1, Camphor lactam] | 0.0355
CCCN1CC2CCC(C)(C1=O)C2(C)C (centres unmarked) [Compound 1a, N-propyl camphor lactam] | 0.0282
C=C1CN(CCC)C(=O)C2C(C)CCC12 (centres unmarked) [Compound 3a, N-propyl dolicho-C-lactam] | 0.0317

Same assay, conditions: treated membrane over human blood, 20 min

Molecule | EC95 [mg/cm^2]
N-propyl dihydro verbenone lactam [Compound 2a] | 0.264
C=C1CNC(=O)C2C(C)CCC12 (centres unmarked) [Compound 3, Dolicho (C) lactam] | 0.173
CC12CCC(CNC1=O)C2(C)C (centres unmarked) [Compound 1, Camphor lactam] | 0.166
CCCN1CC2CCC(C)(C1=O)C2(C)C (centres unmarked) [Compound 1a, N-propyl camphor lactam] | 0.102
C=C1CN(CCC)C(=O)C2C(C)CCC12 (centres unmarked) [Compound 3a, N-propyl dolicho-C-lactam] | 0.117

System: Aedes aegypti females
Assay: Feeding deterrency assay utilising K&D module
Format: in vivo
Settings: 25 nmol\cm^2
Method: Feeding Deterrency assay utilising K&D module (Klun, J. A., and M. Debboun, J. Med. Entomol., 37: 177-181 (2000); Klun, J. A., et al., 40: 293-299 (2003)): Test compounds were bioassayed for their feeding deterrency against Aedes aegypti females in K&D module assay. […] Feeding deterrency was evaluated as proportion feeding. Ethanol was used as control.

Molecule | % not biting [%] | mean bites\6 | total Bites\120
N-propyl dihydro verbenone lactam [Compound 2a] | 92 | 0.5 | 10
C=C1C(=O)OC[C@H]2[C@@H]1CC[C@@H]2C [Compound 6, Dolicho lactone (D)] | 87 | 0.8 | 16
C=C1CNC(=O)C2C(C)CCC12 (centres unmarked) [Compound 3, Dolicho (C) lactam] | 92 | 0.5 | 10
C=C1COC(=O)[C@H]2[C@@H]1CC[C@@H]2C [Compound 5, Dolicholactone (C)] | 89 | 0.7 | 14
CCN(CC)C(=O)c1cccc(C)c1 [DEET, N,N-diethyl-m-toluamide, reference compound] | 94 | 0.4 | 8
CC12CCC(CNC1=O)C2(C)C (centres unmarked) [Compound 1, Camphor lactam] | 91 | 0.55 | 11
CCCN1CC2CCC(C)(C1=O)C2(C)C (centres unmarked) [Compound 1a, N-propyl camphor lactam] | 96 | 0.25 | 5
C=C1CN(CCC)C(=O)C2C(C)CCC12 (centres unmarked) [Compound 3a, N-propyl dolicho-C-lactam] | 98 | 0.15 | 3

System: Sand Fly (Phlebotomus papatasi)
Assay: Sand fly blood-feeding assay for testing repellents and feeding deterrents
Format: in vivo
Settings: concentration 0.00001%; 2 h; n = 3
Excerpt: Sand Fly (Phlebotomus papatasi) blood-feeding assay for testing repellents and feeding deterrents: A pig intestine-based membrane feeing system (Watnaporn, D., et al., Proceedings of VIIIth Sir Dorabjee Tata International Symposium: Arthropod born viral infections-Current status and research, Pages 417-424, 2008) has been used for blood-feeding of female sand flies in colony maintenance. The same technique has been used for testing repellency and antifeeding effects of several new compounds. A circular area of the fabric mesh on top of the test container that matches the size of the glass feeder was treated with the test compound by applying the test solution using a Q-tip. After a group of 30 females and 15 males was placed into the test container, a glass feeder filled with cow blood was placed on top of the treated area in the center of the fabric mesh that was secured on top of the container. Sand flies were allowed to feed for 2 h before the number of blood-fed females was in each feeding container counted.
Female sand flies in the untreated control achieved a 32% to 61% blood feeding rate during the test period (2 h) when a group of 30 females and 15 males was placed in a feeding pot and fed through a fine mesh screen using an artificial membrane feeding system (Table 1 [?]).

Molecule | Mean % Feeding [%] | Mean % Inhibition [%]
CC12CCC(CNC1=O)C2(C)C (centres unmarked) [Compound 1, Camphor lactam] | 6.7 | 90.9
CCCN1CC2CCC(C)(C1=O)C2(C)C (centres unmarked) [Compound 1a, N-propyl camphor lactam] | 5.6 | 92.4

Same assay, conditions: concentration 0.0001%; 2 h; n = 3

Molecule | Mean % Feeding [%] | Mean % Inhibition [%]
CC12CCC(CNC1=O)C2(C)C (centres unmarked) [Compound 1, Camphor lactam] | 3.3 | 95.5
CCCN1CC2CCC(C)(C1=O)C2(C)C (centres unmarked) [Compound 1a, N-propyl camphor lactam] | 6.7 | 90.9

Same assay, conditions: concentration 0.001%; 2 h; n = 3

Molecule | Mean % Feeding [%] | Mean % Inhibition [%]
CC12CCC(CNC1=O)C2(C)C (centres unmarked) [Compound 1, Camphor lactam] | 2.2 | 97.0
CCCN1CC2CCC(C)(C1=O)C2(C)C (centres unmarked) [Compound 1a, N-propyl camphor lactam] | 1.1 | 98.5
C=C1CN(CCC)C(=O)C2C(C)CCC12 (centres unmarked) [Compound 3a, N-propyl dolicho-C-lactam] | 25.6 | 65.1

Same assay, conditions: concentration 0.01%; 2 h; n = 3

Molecule | Mean % Feeding [%] | Mean % Inhibition [%]
CC12CCC(CNC1=O)C2(C)C (centres unmarked) [Compound 1, Camphor lactam] | 0.0 | 100.0
CCCN1CC2CCC(C)(C1=O)C2(C)C (centres unmarked) [Compound 1a, N-propyl camphor lactam] | 0.0 | 100.0
C=C1CN(CCC)C(=O)C2C(C)CCC12 (centres unmarked) [Compound 3a, N-propyl dolicho-C-lactam] | 17.8 | 75.8

Same assay, conditions: concentration 0.02%; 2 h; n = 3

Molecule | Mean % Feeding [%] | Mean % Inhibition [%]
C=C1CN(CCC)C(=O)C2C(C)CCC12 (centres unmarked) [Compound 3a, N-propyl dolicho-C-lactam] | 8.9 | 87.9

Same assay, conditions: concentration 0.04%; 2 h; n = 3

Molecule | Mean % Feeding [%] | Mean % Inhibition [%]
C=C1CN(CCC)C(=O)C2C(C)CCC12 (centres unmarked) [Compound 3a, N-propyl dolicho-C-lactam] | 5.6 | 92.4

Same assay, conditions: sand fly blood feeding, 2 h

Molecule | effectiveness (comparison between compounds)
C=C1CNC(=O)C2C(C)CCC12 (centres unmarked) [Compound 3, Dolicho (C) lactam] | more effective than dolicholactone
C=C1CN(CCC)C(=O)C2C(C)CCC12 (centres unmarked) [Compound 3a, N-propyl dolicho-C-lactam] | more effective than dolicholactam

System: adult lone star ticks, Amblyomma americanum
Assay: Tick repellency: vertical filter paper bioassay
Format: in vivo
Settings: Conc. 31 ug; ticks exposed 10-15 minutes after application
Method: Tick repellency: Vertical filter paper bioassay against adult lone star ticks, Amblyomma americanum, and nymphs was conducted with selected lactams, lactones and ketones. Adult ticks were exposed 10-15 minutes after application of the candidate compounds. Repellency was measured in % repelled from the treated surface at various concentrations.

Molecule | % repelled [%]
CC(C)=CCCC(C)C1C=CC(=O)CC1 (centres unmarked) [Compound 7a, 4-(1,5-Dimethylhex-4-enyl)cyclohex-2-en-1-one] | 20

Same assay, conditions: Conc. 63 ug; ticks exposed 10-15 minutes after application

Molecule | % repelled [%]
CC(C)=CCCC(C)C1C=CC(=O)CC1 (centres unmarked) [Compound 7a, 4-(1,5-Dimethylhex-4-enyl)cyclohex-2-en-1-one] | 53.3
C=C1CN(CCC)C(=O)C2C(C)CCC12 (centres unmarked) [Compound 3a, N-propyl dolicho-C-lactam] | 20

Same assay, conditions: Conc. 125 ug; ticks exposed 10-15 minutes after application

Molecule | % repelled [%]
CCN(CC)C(=O)c1cccc(C)c1 [DEET, N,N-diethyl-m-toluamide, reference compound] | 5
CC12CCC(CNC1=O)C2(C)C (centres unmarked) [Compound 1, Camphor lactam] | 26.7
CCCN1CC2CCC(C)(C1=O)C2(C)C (centres unmarked) [Compound 1a, N-propyl camphor lactam] | 26.7
CC(C)=CCCC(C)C1C=CC(=O)CC1 (centres unmarked) [Compound 7a, 4-(1,5-Dimethylhex-4-enyl)cyclohex-2-en-1-one] | 73.3
C=C1CN(CCC)C(=O)C2C(C)CCC12 (centres unmarked) [Compound 3a, N-propyl dolicho-C-lactam] | 83.6

Same assay, conditions: Conc. 500 ug; ticks exposed 10-15 minutes after application

Molecule | % repelled [%]
CCN(CC)C(=O)c1cccc(C)c1 [DEET, N,N-diethyl-m-toluamide, reference compound] | 68.3
CC12CCC(CNC1=O)C2(C)C (centres unmarked) [Compound 1, Camphor lactam] | 66.7
CCCN1CC2CCC(C)(C1=O)C2(C)C (centres unmarked) [Compound 1a, N-propyl camphor lactam] | 100
CC(C)=CCCC(C)C1C=CC(=O)CC1 (centres unmarked) [Compound 7a, 4-(1,5-Dimethylhex-4-enyl)cyclohex-2-en-1-one] | 96.7
C=C1CN(CCC)C(=O)C2C(C)CCC12 (centres unmarked) [Compound 3a, N-propyl dolicho-C-lactam] | 100

Same assay, conditions: Conc. 2000 ug; ticks exposed 10-15 minutes after application

Molecule | % repelled [%]
CCN(CC)C(=O)c1cccc(C)c1 [DEET, N,N-diethyl-m-toluamide, reference compound] | 95.7
CC12CCC(CNC1=O)C2(C)C (centres unmarked) [Compound 1, Camphor lactam] | 73.3
CCCN1CC2CCC(C)(C1=O)C2(C)C (centres unmarked) [Compound 1a, N-propyl camphor lactam] | 93.3
CC(C)=CCCC(C)C1C=CC(=O)CC1 (centres unmarked) [Compound 7a, 4-(1,5-Dimethylhex-4-enyl)cyclohex-2-en-1-one] | 82.5
C=C1CN(CCC)C(=O)C2C(C)CCC12 (centres unmarked) [Compound 3a, N-propyl dolicho-C-lactam] | 100

Same assay, conditions: at 125 and 64 ug concentrations

Molecule | repellency
CCN(CC)C(=O)c1cccc(C)c1 [DEET, N,N-diethyl-m-toluamide, reference compound] | failed to repel ticks

Same assay, conditions: filter paper bioassay

Molecule | lowest concentration at which adult ticks were repelled [µg]
CC(C)=CCCC(C)C1C=CC(=O)CC1 (centres unmarked) [Compound 7a, 4-(1,5-Dimethylhex-4-enyl)cyclohex-2-en-1-one] | 31
